Laboratory results reported in ChEMBL document CHEMBL1143228, “Inhibition of lipopolysaccharide-induced inducible nitric oxide synthase and cyclooxygenase-2 expression by xanthanolides isolated from Xanthium strumarium” (Bioorg Med Chem Lett, 2008).
Active and inactive are the calls of the source. The calls are words filed in the database; no cut-off is given here.

Assays:
BV-2 [1] = assay: Inhibition of NO production in LPS-activated mouse BV2 cells by […]; assay type: functional, cell-based
BV-2 [2] = assay: Inhibition of iNOS mRNA expression in LPS-stimulated mouse BV2 cells at 20 uM after 4 hrs by RT-PCR; assay type: functional, cell-based
BV-2 [3] = assay: Inhibition of iNOS expression in LPS-stimulated mouse BV2 cells at 20 uM after 20 hrs by Western blot analysis; assay type: functional, cell-based
BV-2 [4] = assay: Inhibition of COX2 expression in LPS-stimulated mouse BV2 cells after 20 hrs by Western blot analysis; assay type: functional, cell-based
BV-2 [5] = assay: Inhibition of COX2 mRNA expression in LPS-stimulated mouse BV2 cells at 20 uM after 4 hrs by RT-PCR; assay type: functional, cell-based
BV-2 [6] = assay: Inhibition of IkappaB alpha degradation in LPS-induced mouse BV2 cells at 20 uM after 30 mins by Western blot analysis; assay type: functional, cell-based
BV-2 [7] = assay: Inhibition of NF-kappaB activity in LPS-stimulated mouse BV2 cells at 10 uM after 1 hr by luciferase reporter gene assay; assay type: cell-based

| IC50 (BV-2 [1]) | SMILES | Activity (BV-2 [2]) | Activity (BV-2 [3]) | Activity (BV-2 [4]) | Activity (BV-2 [5]) | Activity (BV-2 [6]) | Activity (BV-2 [7]) |
| --- | --- | --- | --- | --- | --- | --- | --- |
| 136 µM | C=C(C(=O)O)[C@H]1CC=C(/C=C/C(C)=O)[C@@H](C)CC1 |  |  |  |  |  |  |
| 0.47 µM | C=C1C(=O)O[C@H]2C[C@H](C)C(/C=C/C(C)=O)=CC[C@H]12 | Active | Active | Active | Active | Active | Active |
| 11.2 µM | C=C1C(=O)O[C@H]2C[C@H](C)C(CCC(C)=O)=CC[C@H]12 | Active | Active | Active | Active | Active |  |
